Source: PMC10568017, “A quest for the stereo-electronic requirements for selective agonism for the neurotrophin receptors TrkA and TrkB in 17-spirocyclic-dehydroepiandrosterone derivatives” (Frontiers in Molecular Neuroscience, 2023)

Tests used:
[1] = murine models; ref Bennett et al., 2016; Tsika et al., 2021; cited from earlier work
TrkB = target: T1, TrkB (Mus musculus, UniProt P15209); assay: TrkB phosphorylation assay in primary astrocytes (Western blot); format: cell-based; details: compound 1 μM, 20 min, after 6 h serum starvation, BDNF 500 ng/mL as control
T1 construct: primary cortical astrocytes from 2-day-old mice (as a natively TrkB-expressing neuronal population); endogenous in cells; host or cells: primary cortical astrocytes from C57B/6 mouse pups (P2)
T1 sequence (P15209 32-821): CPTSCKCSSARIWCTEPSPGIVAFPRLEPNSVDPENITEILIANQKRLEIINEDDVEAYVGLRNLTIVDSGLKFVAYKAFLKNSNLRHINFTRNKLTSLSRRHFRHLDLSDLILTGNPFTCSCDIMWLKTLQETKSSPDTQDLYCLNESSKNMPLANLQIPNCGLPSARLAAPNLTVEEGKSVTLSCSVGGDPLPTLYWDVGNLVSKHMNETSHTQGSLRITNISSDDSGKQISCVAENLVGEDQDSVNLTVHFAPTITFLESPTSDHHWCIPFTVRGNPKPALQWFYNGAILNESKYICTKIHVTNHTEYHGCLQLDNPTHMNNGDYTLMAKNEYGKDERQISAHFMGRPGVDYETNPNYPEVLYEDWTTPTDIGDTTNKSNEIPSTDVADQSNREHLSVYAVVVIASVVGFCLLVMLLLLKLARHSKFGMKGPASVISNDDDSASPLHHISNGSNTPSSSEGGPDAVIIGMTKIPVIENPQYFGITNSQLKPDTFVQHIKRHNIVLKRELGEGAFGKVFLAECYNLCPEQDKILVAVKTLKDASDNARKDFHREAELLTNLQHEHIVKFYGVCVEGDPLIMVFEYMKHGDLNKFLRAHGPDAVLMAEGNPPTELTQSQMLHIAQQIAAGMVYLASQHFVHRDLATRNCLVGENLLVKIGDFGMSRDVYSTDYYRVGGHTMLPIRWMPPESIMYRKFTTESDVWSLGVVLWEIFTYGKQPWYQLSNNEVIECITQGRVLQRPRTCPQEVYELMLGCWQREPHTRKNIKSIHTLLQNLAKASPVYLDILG
Method: (§1) We tested compounds on three cellular systems, primary cortical astrocytes from 2-day-old mice (as a natively TrkB-expressing neuronal population), and NIH-3T3 fibroblasts stable transfected with TrkB and NIH-3T3 naïve cells. Cells were grown with high-glucose DMEM medium supplemented with 10% fetal bovine serum (FBS), 100 μg/mL streptomycin, and 100 units/mL penicillin at 37°C in a humidified 5% CO2 atmosphere. Phosphorylation results presented here are in primary astrocytes, and cell toxicity assay results are in NIH-3T3 stable transfected cells with TrkB.
Cells were plated in 12 well plates, at a density of 100,000 cells per well, with 6 h of serum deprivation carried out on the following day. To assess the effect of compounds on TrkB phosphorylation, 20-min treatments were applied, using either BDNF at 500 ng/mL (Peprotech 450-02) (positive control) or compounds at 1 μM.
Cell lysis for 10 min was carried out on ice using the Pierce IP Lysis Buffer by Thermo Scientific and a phospho-protease inhibitor cocktail by Millipore. After adding loading buffer (5 × Laemni), 25 μg from each protein sample were incubated for 5 min at 95°C and subjected to SDS-PAGE. Proteins were transferred to a nitrocellulose membrane at 350 mA for 2 h. Membrane blocking was performed using 5% bovine serum albumin (BSA) at room temperature for 1 h, before adding the primary antibodies to the blocking solution at 4°C overnight. HRP-conjugated secondary antibodies were used for the detection of chemiluminescence with ECL solution. Primary antibodies: Phospho-TrkB (Tyr816) Millipore # ABN1381, and Anti-TrkB Abcam #ab33655.
Mixed glial cultures were isolated from the cortex of C57B/6 pups at post-natal day 2 (P2). Cells were plated in a medium containing high-glucose DMEM, 200 U/mL penicillin, 200 μg/mL streptomycin, and 10% fetal bovine serum (FBS). When cells reach 100% confluency (7–8 days), the anti-mitotic agent Ara-C was added in the media at a final concentration of 10 μM, for 3 to 4 days to target the highly proliferative microglial cells. Ara-C was removed, and primary astrocytes (97% purity) were cultured at 5% CO2 and 37°C.
Cells were plated at 70–80% confluency. The next day, they were deprived of serum for 6 h and subsequently treated with 500 ng/mL BDNF or 1 μM of compounds for 20 min. Cells were then lysed in Pierce™ IP Lysis Buffer (87788, Thermo Fischer Scientific, Rockford, USA), containing proteases (539138, Calbiochem, Darmstadt, Germany), and phosphatase inhibitors (524629, Calbiochem, Darmstadt, Germany). Lysates were then suspended in an SDS loading buffer and subjected to Western blot against phosphorylated TrkB (1:1,000, ABN1381, Sigma-Aldrich, St. Louis, MO, USA) and total TrkB (1:1,000, 07-225-I, Sigma-Aldrich, St. Louis, MO, USA).

CYP2C9 = target: T2, CYP2C9 (Homo sapiens, UniProt P11712); assay: Isozyme-specific CYP450 inhibition, CYP2C9; format: in vitro ADME; details: 1 μM, 60 min, recombinant human CYP450 (Baculosomes)
T2 construct: purchased Thermo Fisher Scientific; host or cells: Baculosomes
T2 sequence (P11712 whole entry): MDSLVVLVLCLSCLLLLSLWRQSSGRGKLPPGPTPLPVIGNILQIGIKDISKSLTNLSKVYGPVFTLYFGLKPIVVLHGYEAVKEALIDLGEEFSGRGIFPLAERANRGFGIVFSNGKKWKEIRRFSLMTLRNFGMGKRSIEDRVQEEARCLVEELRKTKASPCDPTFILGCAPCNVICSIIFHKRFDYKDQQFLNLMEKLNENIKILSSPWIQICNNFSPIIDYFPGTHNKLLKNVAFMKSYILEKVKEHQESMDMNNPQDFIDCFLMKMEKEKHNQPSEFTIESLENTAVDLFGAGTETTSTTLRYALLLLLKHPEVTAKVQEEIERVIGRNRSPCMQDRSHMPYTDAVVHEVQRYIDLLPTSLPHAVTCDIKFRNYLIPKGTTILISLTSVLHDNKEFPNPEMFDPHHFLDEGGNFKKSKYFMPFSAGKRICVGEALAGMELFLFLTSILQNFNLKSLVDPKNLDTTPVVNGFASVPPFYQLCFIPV
Method: Human cytochrome P450 (CYP450) isoenzymes were expressed in Baculosomes®, purchased from Thermo Fisher Scientific (Waltham, MA, USA). All reagents were handled and prepared according to the manufacturer's protocol. Test compounds were assessed at 1 μM for their effects on CYP1A2, CYP2A6, CYP2C9, CYP2C19, CYP2D6, and CYP3A4. Approximately 1 μM was selected based on our ADMET standard operating procedures and protocols also published previously (Rogdakis et al., [2022]; Yilmaz et al., [2022]). CYP450-enzymatic activity was determined based on the kinetic model for each CYP450 isoform (Cohen et al., [2003]; Veith et al., [2009]). Reactions took place in triplicates at 20°C. For this, NADP^+ (10 mM in 100 mM potassium phosphate, pH 8.0) was converted into NADPH by the regeneration system present (glucose-6-phosphate at 333 mM and glucose-6-phosphate-dehydrogenase at 30 U/mL in 100 mM potassium phosphate, pH 8.0). Following the addition of the fluorescent substrate, signal monitoring over time took place immediately (<2 min) at suitable excitation and emission wavelengths (Agilent BioTek Lionheart FX). CYP450 inhibition (%) was determined based on the reaction rates (fluorescence intensity changes per unit time). In total, n = 60 measurements […] were acquired (t = 60 min).
% Inhibition=(1-X/A)×100%
X is the rate observed in the presence of the test compound.
A is the rate observed in the presence of the negative (solvent, DMSO) control.

[2] = tested on: NIH-3T3 TrkB-expressing cell line; assay: CellTox Green cytotoxicity assay in NIH-3T3 cells stable transfected with TrkB under serum deprivation; format: cell-based; details: compound 1 μM, 24 h, after 24 h serum starvation; BDNF 500 ng/mL as control
Method: as §1
NIH-3T3 stable transfected cells with TrkB were plated in 96-well plates at a density of 10,000 cells/well, before carrying out serum starvation for 24 h. Cells were then treated for 24 h with either BDNF at 500 ng/mL (control) or the compounds at 1 μM.
For the cell toxicity assay, we used CellTox™ Green Dye (2,000 × , Promega) for the visualization of dead cells and Hoechst 33,342 solution (10,000 × ) for total cells. A ZEISS Axio Vert.A1 microscope was used for image capture, and the ImageJ software (https://imagej.nih.gov/ij/) was used for analysis. The number of CellTox positive cells was normalized against the total number of cells observed in each image.
The NIH-3T3 TrkB cell line, which is stable and transfected to specifically express the TrkB receptor, was used for the screening of the new compounds for their ability to protect cells from serum deprivation-induced apoptosis through the activation of the TrkB receptor. Cell death was induced by serum deprivation for 24 h and then BDNF (500 ng/mL), the native neurotrophin ligand of the TrkB receptor, or compounds ENT-A007, ENT-A009, ENTA025, ENT-A026, ENT-A033, ENT-A034, ENT-A035, ENT-A036, ENT-A037, ENT-A046, ENT-A047, ENT-A055, and ENT-A056 (1 μM) were added to the media for 24 h.

[3] = Metabolic stability in pooled human liver microsomes; format: in vitro ADME; details: 1 μM
Method: For metabolic stability assessment, pooled human liver microsomes were employed at 0.5 mg/mL. Incubation conditions were optimized to ensure linear metabolite formation with respect to protein concentration and reaction time. All test compounds were assessed at 1 μM based on our ADMET standard operating procedures and protocols, also published previously (1 μM was selected based on our ADMET standard operating procedures and protocols also published previously) (Rogdakis et al., [2022]; Yilmaz et al., [2022]). Approximately 1 mM of NADPH served as a cofactor. Reactions took place in triplicates at 37°C. Negative and positive controls (low vs. rapid clearance) were included for low vs. rapid clearance. After 60 min, reactions were terminated.
Parent structure loss is classified as very slow (<5%), slow (5–19%), moderate (20–50%), fast (50–80%), or very fast (>80%). Such categories have been defined according to set criteria, namely, high metabolism (t1/2 value of <30 min), moderate metabolism (30 min <t1/2 value of <60 min), and low metabolism (t1/2 value of >60 min) (EMA, [2012], [2013]; FDA, [2020]).

PC12 cells = assay: CellTox assay, survival of PC12 cells under serum deprivation; format: cell-based; details: compound 500 nM, 24 h, after 4 h serum starvation; NGF 100 ng/mL as control (Figure 9)
Method: (§2) PC12 cells were obtained from LGC Promochem and cultured under specified conditions. Cells were grown in DMEM medium (Thermo Fischer Scientific, cat# 10566016) containing 10% horse serum (Thermo Fischer Scientific, cat# 16050122), 5% fetal bovine serum (Thermo Fischer Scientific, cat# 10270106), 100 units/mL penicillin, and 0.1 mg/mL streptomycin (Thermo Fischer Scientific, cat# 15140122) at 5% CO2 and 37°C. Cells were used between passages 5 and 20.
CellTox assay (G8742, Promega, Leiden, Belgium) was used to assess the survival of PC12 cells under serum deprivation conditions. PC12 cells were plated in 96-well plates, starved from serum for 4 h, and subsequently treated with NGF (100 ng/mL) or compound (500 nM) for 24 h. CellTox assay reagents and Hoescht (1:10,000, H3570, Invitrogen, Massachusetts, USA) were then added to each well for 30 min, and then, cells were imaged with a Zeiss AXIO Vert A1 fluorescent microscope. CellTox positive cells were normalized to the total number of cells for each image.
Initially, we tested compounds ENT-A002, ENT-A007, ENT-A009, ENTA025, ENT-A026, ENT-A033, ENT-A034, ENT-A035, ENT-A036, ENT-A037, ENT-A046, ENT-A047, ENT-A055, and ENT-A056 for their ability to protect PC12 cells from serum deprivation-induced cell death as well as for their ability to activate TrkA downstream pro-survival signaling kinases Akt and Erk1/2 (Figures 9A–C). We opted to employ PC12 cells, which express receptors TrkA and p75 and have been routinely used for investigating NGF-TrkA signaling. PC12 cells were subjected to a period of nutrient deprivation (without fetal bovine serum and horse serum in their culture medium) for 4 h. Following this, NGF (100 ng/mL) or one of the compounds (500 nM or 1 μM) was administered and allowed to interact with the cells for 24 h. Following that, CellTox and Hoescht dyes were added and cells were imaged to assess cell death. Control cases involved cells cultured in full medium (serum), cells under starvation conditions (serum-free), and cells under starvation conditions treated with DMSO (SF+DMSO).

Erk1/2 = Erk1/2 phosphorylation in PC12 cells (Western blot); format: cell-based; details: compound 500 nM, 30 min, NGF 100 ng/mL as control
TrkA = target: T3, TrkA (Rattus norvegicus, UniProt P35739); assay: TrkA phosphorylation in PC12 cells (immunoprecipitation / Western blot); format: cell-based; details: compound 500 nM, 30 min, NGF 100 ng/mL as control
T3 construct: PC12 cells, which express receptors TrkA and p75; endogenous in cells; host or cells: PC12 cells
T3 sequence (P35739 33-799): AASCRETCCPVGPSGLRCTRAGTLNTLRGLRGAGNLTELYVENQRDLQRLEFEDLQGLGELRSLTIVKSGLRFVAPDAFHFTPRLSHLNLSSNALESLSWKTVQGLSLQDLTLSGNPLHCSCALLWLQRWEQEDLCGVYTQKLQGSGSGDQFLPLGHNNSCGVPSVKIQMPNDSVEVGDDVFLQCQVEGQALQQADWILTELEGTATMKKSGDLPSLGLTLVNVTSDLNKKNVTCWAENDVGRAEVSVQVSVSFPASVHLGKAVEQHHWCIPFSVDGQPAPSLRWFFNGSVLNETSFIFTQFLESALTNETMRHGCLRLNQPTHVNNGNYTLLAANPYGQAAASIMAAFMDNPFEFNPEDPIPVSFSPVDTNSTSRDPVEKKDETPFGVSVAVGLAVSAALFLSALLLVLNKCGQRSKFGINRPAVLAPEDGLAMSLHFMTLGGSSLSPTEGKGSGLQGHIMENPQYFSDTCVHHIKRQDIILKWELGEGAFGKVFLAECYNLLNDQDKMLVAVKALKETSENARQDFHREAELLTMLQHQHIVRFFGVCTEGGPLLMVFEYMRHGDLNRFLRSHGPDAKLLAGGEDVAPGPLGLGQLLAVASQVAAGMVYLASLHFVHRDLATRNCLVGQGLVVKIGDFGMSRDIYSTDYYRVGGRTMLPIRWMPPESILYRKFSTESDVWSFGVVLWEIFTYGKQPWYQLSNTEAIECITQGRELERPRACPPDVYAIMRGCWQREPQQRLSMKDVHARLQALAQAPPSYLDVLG
Method: as §2
For immunoprecipitation experiments, PC12 cells were used when they were at 70–80% confluent. Cells were starved from serum for 4 h and subsequently treated with 100 ng/mL NGF (Alomone Labs, cat# N-100) or 500 nM of each compound for 30 min. Cells were then lysed in Pierce™ IP Lysis Buffer (Thermo Fischer Scientific, cat# 87787) containing proteases (Sigma-Aldrich, cat# 539131) and phosphatase inhibitors (Millipore, cat# 524629). Lysates were then immunoprecipitated overnight at 4°C with TrkA antibody (1:100, Millipore, cat# 06-574) followed by 4 h incubation with protein G-plus agarose beads (Santa Cruz Biotechnology, cat# sc-2002). Beads were then collected, washed three times with lysis buffer, resuspended in SDS loading buffer, and subjected to Western blot against phosphorylated Tyrosine (1:1000, R&D systems, cat# BAM1676). […]

Structure (SMILES)	elimination constant (Kel) [1]	phosphorylation levels of the TrkB receptor (TrkB)	inhibition for CYP2C9 (CYP2C9)	protection of NIH-3T3-TrkB cells from serum deprivation-induced cell death (CellTox) [2]	residual of time zero ([3]; pooled human liver microsomes 0.5 mg/mL, t = 60 min, NADPH)	parent structure loss (depletion) class ([3]; pooled human liver microsomes, 60 min)	protection of PC12 cells from serum deprivation-induced cell death (CellTox) (PC12 cells)	Erk1/2 phosphorylation (Erk1/2)	TrkA phosphorylation (TrkA)
CC12CCC(O)CC1=CCC1C2CCC2(C)C1CCC21OC1CO (stereo not shown) [BNN27]	0.465 h⁻¹	–	–	–	–	–	–	–	–
CC12CCC(O)CC1=CCC1C2CCC2(C)C1CCC21CC=C(C=CC#N)CO1 [ENT-A009, (E)-(3S,17R)-3-hydroxy-3′,6′-dihydrospiro[5-androstene-17,2′-pyran]-5′-acrylonitrile]	–	successfully increased phosphorylation levels of the TrkB receptor compared to the untreated control	moderate-to-strong inhibition	significantly reduce cell death levels compared to the serum-free control, comparable to the BDNF action	–	–	–	–	–
CC12CCC(O)CC1=CCC1C2CCC2(C)C1CCC21CC=C(CCl)CO1 [ENT-A025, (3S,17R)-5′-(chloromethyl)-3′,6′-dihydrospiro[5-androstene-17,2′-pyran]-3-ol]	–	–	–	cannot protect NIH3T3-TrkB cells from serum deprivation	92%	slow (slow (5–19%))	protect PC12 cells against serum deprivation-induced cell death	strongly induce TrkA and Erk1/2 phosphorylation, comparable to NGF action	strongly induce TrkA and Erk1/2 phosphorylation, comparable to NGF action
